From patent US12396461B2, “Functional peptides having antimicrobial activity against phytopathogenic microorganisms” (TOYOTA JIDOSHA KABUSHIKI KAISHA, priority 2019, dated 2025)
Where “and” joins values, the source holds several entries; their conditions need not be identical. Equal values may be shown once. Read-outs that look alike come from different tables or passages of the source.

Columns and labels:
Fusarium oxysporum = format: cell-based; parameters: key to Plate antimicrobial activity test Fusarium oxysporum, level: a case where hyphae extended to the entire well and no antimicrobial activity was found is defined as “level 0,”; a case where hyphae extended to less than a half of the well and thus the peptide inhibited the growth of the hyphae is defined as “level 1,”; a case where ungerminated spores were present and the peptide partially inhibited the germination is defined as “level 2,”; a case where all spores were ungerminated and the peptide completely inhibited the germination is defined as “level 3.”
[1] = tested on: Colletotrichum destructivum; format: cell-based; parameters: key to Plate antimicrobial activity test Colletotrichum destructivum, level: a case where hyphae extended to the entire well and no antimicrobial activity was found is defined as “level 0,”; a case where hyphae extended to less than a half of the well and thus the peptide inhibited the growth of the hyphae is defined as “level 1,”; a case where ungerminated spores were present and the peptide partially inhibited the germination is defined as “level 2,”; a case where all spores were ungerminated and the peptide completely inhibited the germination is defined as “level 3.”; conditions: 25° C. for 1 day or 2 days, microscopic observation
Botrytis cinerea = format: cell-based; parameters: key to Plate antimicrobial activity test Botrytis cinerea, level: a case where hyphae extended to the entire well and no antimicrobial activity was found is defined as “level 0,”; a case where hyphae extended to less than a half of the well and thus the peptide inhibited the growth of the hyphae is defined as “level 1,”; a case where ungerminated spores were present and the peptide partially inhibited the germination is defined as “level 2,”; a case where all spores were ungerminated and the peptide completely inhibited the germination is defined as “level 3.”; conditions: 25° C. for 1 day or 2 days, microscopic observation
[2] = tested on: Colletotrichum destructivum; assay: Colletotrichum destructivum leaf inoculation test (Chinese cabbage leaf); format: in vivo; conditions: peptide 100 μM; Chinese cabbage leaf, 25° C. for 4 days, lesions by visual inspection; symbols ◯/Δ/X not defined
Method: In the present example, a suspension comprising Colletotrichum destructivum and a peptide to be tested was dropped on a plant leaf, and lesions were then observed by visual inspection to evaluate the antimicrobial activity of the tested peptide. First, the pores of Colletotrichum destructivum were suspended in water to result in a spore concentration of 5×10^5 spores/ml, so as to prepare a water suspension of spores. Subsequently, a peptide to be tested (TsORF6-1) was added to the water suspension of spores, so that the final concentration of the peptide to be tested became 0 μM, 1 μM, 10 μM or 100 μM. Thereafter, 10 μl each of the water suspension of spores containing the peptide to be tested was dropped on the front side and the back side of the leaf of Chinese cabbage (variety name: “Kigokoro 85”). In this condition, incubation was carried out at 25° C. for 4 days. Thereafter, the front and back sides of the leaf were observed by visual inspection.

[3] = tested on: Colletotrichum orbiculare; format: cell-based; parameters: key to Plate antimicrobial activity test Colletotrichum orbiculare, level: a case where hyphae extended to the entire well and no antimicrobial activity was found is defined as “level 0,”; a case where hyphae extended to less than a half of the well and thus the peptide inhibited the growth of the hyphae is defined as “level 1,”; a case where ungerminated spores were present and the peptide partially inhibited the germination is defined as “level 2,”; a case where all spores were ungerminated and the peptide completely inhibited the germination is defined as “level 3.”; conditions: 25° C. for 1 day or 2 days, microscopic observation
Pyricularia oryzae = format: cell-based; parameters: key to Plate antimicrobial activity test Pyricularia oryzae, level: a case where hyphae extended to the entire well and no antimicrobial activity was found is defined as “level 0,”; a case where hyphae extended to less than a half of the well and thus the peptide inhibited the growth of the hyphae is defined as “level 1,”; a case where ungerminated spores were present and the peptide partially inhibited the germination is defined as “level 2,”; a case where all spores were ungerminated and the peptide completely inhibited the germination is defined as “level 3.”; conditions: 25° C. for 1 day or 2 days, microscopic observation
[4] = tested on: plant pathogenic filamentous fungi; format: cell-based; conditions: Table 3

Row | Substance | Plate antimicrobial activity test Fusarium oxysporum, level (Fusarium oxysporum) | Plate antimicrobial activity test Colletotrichum destructivum, level ([1]; peptide 1 μM) | Plate antimicrobial activity test Colletotrichum destructivum, level ([1]; peptide 10 μM) | Plate antimicrobial activity test Colletotrichum destructivum, level ([1]; peptide 100 μM) | Plate antimicrobial activity test Botrytis cinerea, level (Botrytis cinerea; peptide 1 μM) | Plate antimicrobial activity test Botrytis cinerea, level (Botrytis cinerea; peptide 10 μM) | Plate antimicrobial activity test Botrytis cinerea, level (Botrytis cinerea; peptide 100 μM) | Leaf inoculation test Chinese cabbage/Colletotrichum destructivum [2] | Plate antimicrobial activity test Colletotrichum orbiculare, level ([3]; peptide 1 μM) | Plate antimicrobial activity test Colletotrichum orbiculare, level ([3]; peptide 10 μM) | Plate antimicrobial activity test Colletotrichum orbiculare, level ([3]; peptide 100 μM) | Plate antimicrobial activity test Pyricularia oryzae, level (Pyricularia oryzae; peptide 1 μM) | Plate antimicrobial activity test Pyricularia oryzae, level (Pyricularia oryzae; peptide 10 μM) | Plate antimicrobial activity test Pyricularia oryzae, level (Pyricularia oryzae; peptide 100 μM) | germination inhibitory activity against plant pathogenic filamentous fungi, result in words [4]
1 | KKVAK (listed as Solanum lycopersicum) [TsORF6-1-5aa-14, partial peptide of TsORF6-1, 5 amino acid residues] | 0 | 0 | 0 | 0 | 0 | 0 | 0 | Δ | 0 | 0 | 0 | 0 | 0 | 0 | 
2 | KVAKM (listed as Solanum lycopersicum) [TsORF6-1-5aa-15, partial peptide of TsORF6-1, 5 amino acid residues] | 0 | 0 | 0 | 0 | 0 | 0 | 0 | Δ | 0 | 0 | 0 | 0 | 0 | 0 | 
3 | KVKNK (listed as Solanum lycopersicum) [TsORF6-1-5aa-10, partial peptide of TsORF6-1, 5 amino acid residues] | 0 and 1 | 0 | 0 | 0 | 0 | 0 | 0 | Δ | 0 | 0 | 0 | 0 | 0 | 0 | 
4 | KVMIV (listed as Solanum lycopersicum) [TsORF6-1-5aa-2, partial peptide of TsORF6-1, 5 amino acid residues] | 0 | 0 | 0 | 1 | 0 | 0 | 1 | ◯ | 0 | 0 | 1 | 0 | 0 | 0 | extremely excellent germination inhibitory activity
5 | VKTKV (listed as Solanum lycopersicum) [TsORF6-1-5aa-7, partial peptide of TsORF6-1, 5 amino acid residues] | 0 | 0 | 0 | 0 | 0 | 0 | 0 |  | 0 | 0 | 0 | 0 | 0 | 0 | 
6 | VKTKVKNK (listed as Solanum lycopersicum) [TsORF6-1-8aa-7, partial peptide of TsORF6-1, 8 amino acid residues] | 0 | 0 | 0 | 0 | 0 | 0 | 0 |  | 0 | 0 | 0 | 0 | 0 | 0 | 
7 | VVKTK (listed as Solanum lycopersicum) [TsORF6-1-5aa-6, partial peptide of TsORF6-1, 5 amino acid residues] | 0 | 0 | 0 | 0 | 0 | 0 | 0 |  | 0 | 0 | 0 | 0 | 0 | 0 | 
8 | VVKTKVKN (listed as Solanum lycopersicum) [TsORF6-1-8aa-6, partial peptide of TsORF6-1, 8 amino acid residues] | 0 | 0 | 0 | 0 | 0 | 0 | 0 |  | 0 | 0 | 0 | 0 | 0 | 0 | 
